Measurements: patent US5408036A, “Isolated metallopolypeptide: compositions and synthetic methods” (The Scripps Research Institute, priority 1993, dated 1995)
pKd: −log10 of the molar value. Values joined by “and” are separate entries in the source; they are usually repeats but may differ in a detail not shown here. Equal entries are not always repeated. One block for each compound: values may come before it. Residues, ends and D or L forms follow the SMILES beside them. No end group written: not given here. *: point of attachment. 5‑carboxyl‑2,2'‑bipyridine = O=C(c1ccc(-c2ccccn2)nc1)*

Columns and labels:
[1] = Circular dichroism (CD) to measure degree of secondary structure (alpha-helicity); type: physicochemical; settings: for helicity / θ: using Cu(II)
Description: ID No's. 3 and 4. The analysis was performed as described above.
Proton nuclear magnetic resonance spectra were recorded at 300MHz on Bruker AM300 spectrometer and are reported in parts per million (ppm) downfield from Me4 Si. Ultraviolet-visible spectra were recorded on Aviv Associates 14DS and Milton Roy Spectronic 3000 Array spectrometers. Circular dichroism measurements were made on Aviv Associates 62DS spectrometer equipped with a thermostable cell holder using 10, 1, and 0.1 mm Hellma quartz cells. All reported CD data have an uncertainty of ±2-5%. All ellipticity measurements are expressed as mean residue ellipticity, [θ], having the units deg·cm^2 ·dmol-^1.

[2] = CD titration: dependence of [θ]222 on free metal ion concentration, ZnCl2; type: binding; settings: CD analysis, ZnCl2
Description: (§1) FIG. 4 illustrates the dependence of mean residue molar ellipticity at 222 nm ([.THETA.]222 ×10^-3) of peptides SEQ ID NO's:2 AND 3 on the concentration of free metal ions when measured as described in Example 3A(2).
(§2) The peptide metal salt solution admixtures prepared as in Example 2A were subjected to CD analyses according to published procedures to measure the degree of stability induced by metal ion complexation with peptides. Greenfield et al., Biochem, 8:4108 (1969) and Johnson, Ann. Rev. Biophvs. Chem., 17:145 (1988). All CD data reported herein have an uncertainty of ±2 to 5% for a 100% helix, [θ]222 =-35,000, and are based on several CD measurements of both peptides SEQ ID NO's:2 and 3 in the presence and absence of metal ions in various TFE/H20 mixtures at -10° to 20° C.
(§3) Both Cu(II) and Zn(II) bound peptide SEQ ID NO:3 with similar affinities and increased the helical content to the same extent.

[3] = Metal ion selectivity and relative affinities by CD analysis; type: binding; settings: for metal ion(s) that preferentially stabilize the peptide: summary of Example 3A(2), 3A(3); for metal ions bound, order of affinity: peptide SEQ ID NO:11 at pH 6.0
Description: Metal ion selectivity is an expected consequence of site specific metal-ligand interaction. The extent of helical induction, to a first approximation, depends on the affinity of metal ion toward the ligands employed, and on the compatibility of metal ion geometry and coordination sphere with the alpha-helical conformation. Thus, although numerous metal ions can induce and stabilize alpha-helix formation, the metal ion having the greatest relative affinity for the ligands employed is preferred and can readily be determined. […]
Peptides, prepared as in Example 1, and admixed with various metal salt solutions as described in Example 2B, were subjected to CD analysis to characterize metal ion selectivity with respect to the position of the metal binding site in the alpha-helical sequence.

[4] = CD titration: dependence of [θ]222 on free metal ion concentration, CdCl2; type: binding; settings: CdCl2, pH 8.0; peptide 5.9×10^-6M in 10 mM sodium borate, 0.5 mM mercaptoethanol, 21° C.
Description: as §1, §2, §3

[5] = Heat denaturation assay to measure melting temperatures; type: physicochemical
Description: In order to assess differences in helix stability between the metal ion complexed and uncomplexed forms of peptides Seq. ID No's. 3 and 4, the conformational stability of each peptide in the presence and absence of transition metal ions was determined from heat denaturation studies according to published procedures. Pace et al., In Protein structure, p. 311., IRL Press, (1989). The analysis of the thermal denaturation curves afforded linear ΔG vs. T and van't Hoff plots. […] Complexed peptides Seq. ID No's.
Because tris-bipyridyl-metal ion coordination complexes are chiral and can form either a left-handed or a right-handed helix, two diastereomeric tri-helical structures can possibly be formed. The stereogenic environment of the ensuing parallel tri-helical topology as well as the geometrical constraints imposed by the overall C3 symmetry of the coordination complex was expected, however, to enforce a high degree of diastereoselectivity in the assembly process. The CD spectrum (in the region of 280 and 330 nm) of the peptide in the presence of Ni(II) indicated the formation of one diastereomer having a left-handed helical configuration. Such a behavior is also consistent with the expected left handed supercoil of the tri-helical metallopolypeptide. The analysis of the thermal denaturation curves for the metallopolypeptide in the presence of Ni(II) yielded linear ΔG vs T and van't Hoff plots.

[6] = Aqueous solubility of the peptide; type: physicochemical
Description: The peptide, in the absence of a metal ion, was readily soluble (up to about 2 mg/ml, 1.3 mM) in aqueous media at a pH value of from about 4 to about 9.

[7] = Concentration dependence of ellipticity at 222 nm, monomer-nmer equilibria; type: physicochemical; settings: absence of added metal ions; nonlinear regression MINSQ
Description: Data (Δ) were analyzed according to monomer-.eta.mer equilibria using the equation below, where Pn, Pmon, and PT are the self-associated, monomeric, and total concentrations of the peptides, respectively, n is the degree of association, θmon is the ellipticity of the monomer, and θn is the ellipticity of the self-associated form of the peptide. The values of n=1.95, θmon =-10,100, θn =-27,900, and Kdiss =6.4×10^-4 were determined by the nonlinear regression program MINSQ. [formula]

[8] = with CdCl2 (solution 8, 7.3×10^-4 M), water, 4° C.
[9] = Ni(II) or Co(II) ions plus 150 mM NaCl
[10] = absence of any polyvalent metal ion, 7.4 μM in 5 mM sodium borate, pH 6.4, 21° C.
[11] = presence of Ni(II) or Co(II) ions, similar conditions (5 mM sodium borate, pH 6.4, 21° C.)

alpha-helicity ([1]; absence of metal ion (solution 7), water pH 6.65, 4° C.): 54% | dependence of CD spectra on peptide concentration ([1]; presence and absence of metal ions, 0.5-70 μM): independent of the peptide concentration | alpha-helicity [1, 8]: up to 90% | θ222 [1, 8]: -31,500 | metal ion(s) that preferentially stabilize the peptide [3]: Cu(II) and Zu(II) | pKd [4]: 4.25
Compound: CC(=O)N[C@@H](C)C(=O)N[C@@H](CCC(=O)O)C(=O)N[C@@H](C)C(=O)N[C@@H](C)C(=O)N[C@@H](C)C(=O)N[C@@H](CCCCN)C(=O)N[C@@H](CCC(=O)O)C(=O)N[C@@H](C)C(=O)N[C@@H](C)C(=O)N[C@@H](C)C(=O)N[C@@H](CCCCN)C(=O)N[C@@H](CS)C(=O)N[C@@H](C)C(=O)N[C@@H](C)C(=O)N[C@@H](C)C(=O)N[C@@H](Cc1c[nH]cn1)C(=O)N[C@@H](C)C(N)=O [peptide SEQ ID NO:2, Ac--Ala--Glu--Ala--Ala--Ala--Lys--Glu--Ala--Ala--Ala--Lys--Cys--Ala--Ala--Ala--His--Ala--CONH2] (Ac-AEAAAKEAAAKCAAAHA-NH2)
dependence of helicity on added NaF ([1]; NaF up to 250 mM, 5 mM sodium borate): independent of concentration of added NaF up to 250 mM | effect of Zn(II) on helical content [2]: no effect | metal ion selectivity ([3]; CD analysis, CdCl2 vs ZnCl2): Cd(II) selective

CD spectrum, structure indicated ([1]; room temperature in water): random coil structure | melting temperature (Tm) [5]: -15.5 °C | metal ion(s) that preferentially stabilize the peptide [3]: Ni(II)
Compound: CC(=O)N[C@@H](C)C(=O)N[C@@H](CCC(=O)O)C(=O)N[C@@H](C)C(=O)N[C@@H](C)C(=O)N[C@@H](C)C(=O)N[C@@H](CCCCN)C(=O)N[C@@H](Cc1c[nH]cn1)C(=O)N[C@@H](C)C(=O)N[C@@H](C)C(=O)N[C@@H](C)C(=O)N[C@@H](Cc1c[nH]cn1)C(=O)N[C@@H](CCC(=O)O)C(=O)N[C@@H](C)C(=O)N[C@@H](C)C(=O)N[C@@H](C)C(=O)N[C@@H](CCCCN)C(=O)N[C@@H](C)C(N)=O [peptide SEQ ID NO:4, Ac--Ala--Glu--Ala--Ala--Ala--Lys--His--Ala--Ala--Ala--His--Glu--Ala--Ala--Ala--Lys--Ala--CONH2] (Ac-AEAAAKHAAAHEAAAKA-NH2)
metal ions bound, order of affinity ([3]; CD analysis): Ni(II) and Cu(II) predominantly followed by Cd(II) then Zn(II)

binding of Cd(II) or Zn(II) ([3]; CD analysis): no significant binding | metal ion(s) that preferentially stabilize the peptide [3]: Ni(II)
Compound: CC(=O)N[C@@H](C)C(=O)N[C@@H](Cc1c[nH]cn1)C(=O)N[C@@H](C)C(=O)N[C@@H](C)C(=O)N[C@@H](C)C(=O)N[C@@H](Cc1c[nH]cn1)C(=O)N[C@@H](CCC(=O)O)C(=O)N[C@@H](C)C(=O)N[C@@H](C)C(=O)N[C@@H](C)C(=O)N[C@@H](CCCCN)C(=O)N[C@@H](CCC(=O)O)C(=O)N[C@@H](C)C(=O)N[C@@H](C)C(=O)N[C@@H](C)C(=O)N[C@@H](CCCCN)C(=O)N[C@@H](C)C(N)=O [peptide SEQ ID NO:5, Ac--Ala--His--Ala--Ala--Ala--His--Glu--Ala--Ala--Ala--Lys--Glu--Ala--Ala--Ala--Lys--Ala--CONH2] (Ac-AHAAAHEAAAKEAAAKA-NH2)
metal ions bound, order of affinity ([3]; CD analysis): Ni(II) and Cu(II) in descending order of affinity

CD spectrum, structure indicated ([1]; absence of added Zn, about 6.0×10^-6 M in Na borate, pH 7.5): random-coiled structure | CD spectrum, structure indicated ([1]; one equivalent of Zn added): beta-turn structure | solubility ([6]; aqueous media, water, absence of a metal ion, pH about 4 to about 9): ≥ 2000 µg/mL and ≥ 1300 µM | decrease of aqueous solubility in the presence of Zn ([6]; pH values greater than about 5.0): about 100 fold
Compound: CC[C@H](C)[C@H](NC(=O)[C@H](Cc1ccc(O)cc1)NC(=O)[C@@H](NC(=O)[C@H](Cc1c[nH]cn1)NC(=O)CNC(=O)[C@@H]1CCCN1C(=O)[C@H](Cc1c[nH]cn1)NC(=O)[C@@H](NC(=O)[C@H](CO)NC(=O)[C@H](CC(C)C)NC(=O)[C@H](CS)NC(C)=O)C(C)C)[C@@H](C)O)C(=O)N[C@@H](CCC(N)=O)C(=O)N[C@@H](CS)C(N)=O [peptide SEQ ID NO:19] (Ac-CLSVHPGHTYIQC-NH2)

Compound: -Gly-Glu-Leu-Ala-Glu-Gln-Lys-Leu-Glu-Gln-Ala-Leu-Gln-Lys-Leu-Ala ({5‑carboxyl‑2,2'‑bipyridine}-GELAEQKLEQALQKLA) [peptide of Example 4]
alpha-helicity [1, 9]: 80% | θ222 [1, 9]: -25,800 deg·cm2·dmol^-1 | alpha-helicity [1, 10]: 30% | θ222 [1, 10]: -10,000 deg·cm^2·dmol^-1 | alpha-helicity [1, 11]: greater than 70% | θ222 [1, 11]: -23,400 degcm^2 dmol^-1 | θmon, ellipticity of the monomer [7]: -10,100 | θn, ellipticity of the self-associated form [7]: -27,900

Compound: Ac--Ala--Ala--Xaa2 --Ala--Leu--Glu--Xaa2 --Gln--Ala--Lys--Ala--Leu--Lys--Glu--Ala--Ala--Gln--Lys--Ala--CONH2 [peptide SEQ ID NO:11, Xaa2 = (NH2)(CO2 H)CH(CH2)3 N(CH2 CO2 H)2]
helicity ([1]; 0° C.): about 100% | θ ([1]; 0° C.): 35,600 | helicity ([1]; 20° C.): about 80% | θ ([1]; 20° C.): 29,300 | metal ions bound, order of affinity ([3]; CD analysis): Cu(II), Hg(II), Cd(II), Fe(II), Zn(II) and Pb(II) in descending order of affinity | metal ion(s) that preferentially stabilize the peptide [3]: Cu(II)

Compound: Ru(III)-peptide SEQ ID NO:3 complex: exchange-inert macrocyclic cis-[Ru(NH3)4 (L)2 ]^3+ complex of peptide SEQ ID NO:3 through two His residues at i and i+4 (AEAAAKEAAAKHAAAHA; Ru(III) tetraammine macrocyclic complex via two His)
alpha-helicity ([1]; room temperature in water): > 80% | θ222 ([1]; room temperature in water): -28,000 | melting temperature (Tm) [5]: 35 °C
